Results on 12 molecules are retold here after patent publication US8076487B2, “Pyridone derivative and herbicide” (Kumiai Chemical Industry Co., Ltd., priority 2006, dated 2011).

The structures appear in SMILES notation.

Holding throughout (format): in vivo
The subject of experiment [1] is green foxtail (Setaria viridis (L.) P. Beauv.). Put plainly: Test Example 3: herbicidal effect by application to upland field (foliage treatment). The conditions noted are these: 14th day after application; for herbicidal effect (index), Green Foxtail: foliage treatment, plants grown two weeks, 1,000 g active ingredient per hectare; for herbicidal effect, Green Foxtail: foliage treatment, 1,000 g active ingredient per 1 hectare, greenhouse. The method, then:
(§1) [table] Test Example 3 Test on Herbicidal Effect by Application to Upland Field In a 80 cm2 plastic pot, field soil was filled. Seeds of barnyardgrass (Echinochloa crus-galli (L.) P. Beauv. var. crus-galli), green foxtail (Setaria viridis (L.) P. Beauv.), velvetleaf (Abutilon theophrasti medicus), and slender amaranth (Amaranthus viridis L.) were sown and allowed to grow for two weeks in a greenhouse. Thereafter, the wettable powder prepared according to Formulation Example 1 was diluted in water and a 1,000 liter equivalent amount per 1 hectare so that the active ingredient becomes 1,000 g per 1 hectare was sprayed using a small sprayer from a top of the plants through its entire body for foliage treatment. Then, on the 14th day after the application to the plants grew in a greenhouse, the herbicidal effect was examined in accordance with a standard shown in Table 34.

The test system of experiment [2] is barnyardgrass (Echinochloa crus-galli (L.) P. Beauv. var. crus-galli). Described as above. To be noted: 14th day after application; for herbicidal effect (index), Barnyardgrass: foliage treatment, plants grown two weeks, 1,000 g active ingredient per hectare; for herbicidal effect, Barnyardgrass: foliage treatment, 1,000 g active ingredient per 1 hectare, greenhouse. The method, then:
as §1

For experiment [3], the system named is slender amaranth (Amaranthus viridis L.). Described as above. To be noted: 14th day after application; for herbicidal effect (index), Slender Amaranth: foliage treatment, plants grown two weeks, 1,000 g active ingredient per hectare; for herbicidal effect, Slender Amaranth: foliage treatment, 1,000 g active ingredient per 1 hectare, greenhouse. As for the experimental part: as §1

Experiment [4] has as its system velvetleaf (Abutilon theophrasti medicus). Described as above. To be noted: 14th day after application; for herbicidal effect (index), Velvetleaf: foliage treatment, plants grown two weeks, 1,000 g active ingredient per hectare; for herbicidal effect, Velvetleaf: foliage treatment, 1,000 g active ingredient per 1 hectare, greenhouse. As for the experimental part:
as §1

The test system of experiment [5] is early watergrass (Echinochloa oryzicola Vasing). Briefly: Test Example 1: herbicidal effect by soil application to paddy field. To be noted: for herbicidal effect, Echinochloa oryzicola Vasing: paddy field soil application, active ingredient 1,000 g per 1 hectare, wettable powder added dropwise to water surface the day after sowing, examined on the 21st day after application; for herbicidal effect (index), Echinochloa oryzicola Vasing: soil application to paddy field, rated by standard of Table 34. Summed up:
(§2)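 Under greenhouse conditions, seeds sown on puddled paddy soil in 100 cm2 pots under 3 cm of standing water received the test compound; injury was assessed with a standard scoring scheme three weeks (day 21) after treatment.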

In experiment [6] the test system is Japanese bulrush (Scirpus juncoides Roxb.). Described as above. To be noted: for herbicidal effect, Scirpus juncoides Roxb.: paddy field soil application, active ingredient 1,000 g per 1 hectare, wettable powder added dropwise to water surface the day after sowing, examined on the 21st day after application; for herbicidal effect (index), Scirpus juncoides Roxb.: soil application to paddy field, rated by standard of Table 34. Summed up:
as §2

Experiment [7] has as its system heartshape false pickerelweed (Monochoria vaginalis (Burm.f.) C.Presl). The description is as above. To be noted: for herbicidal effect, Monochoria vaginalis (Burm. f.) C. Presl: paddy field soil application, active ingredient 1,000 g per 1 hectare, wettable powder added dropwise to water surface the day after sowing, examined on the 21st day after application; for herbicidal effect (index), Monochoria vaginalis (Burm.f.) C.Presl: soil application to paddy field, rated by standard of Table 34. Summed up: as §2

`CCn1c(C(F)(F)F)ccc(C(=O)C2=C(O)CCCC2=O)c1=O` [I-2]: the “herbicidal effect (index), Green Foxtail” value in experiment [1] was 5 (90% or more of herbicidal effect and crop phytotoxicity). For the same molecule, in experiment [2], the “herbicidal effect (index), Barnyardgrass” value was 5 (90% or more of herbicidal effect and crop phytotoxicity). Besides, the “herbicidal effect (index), Slender Amaranth” value in experiment [3] was 5 (90% or more of herbicidal effect and crop phytotoxicity). The “herbicidal effect (index), Velvetleaf” value in experiment [4] is 5 (90% or more of herbicidal effect and crop phytotoxicity). In addition, in experiment [5], the “herbicidal effect, Echinochloa oryzicola Vasing” value is 5 (90% or more of herbicidal effect and crop phytotoxicity). Moreover, the “herbicidal effect, Scirpus juncoides Roxb.” value in experiment [6] was 5 (90% or more of herbicidal effect and crop phytotoxicity). Also, in experiment [7], the “herbicidal effect, Monochoria vaginalis (Burm. f.) C. Presl” value (shortened to “herbicidal effect, Monochoria vaginalis”) was 5 (90% or more of herbicidal effect and crop phytotoxicity).

Regarding `C=C(C)Cn1c(C(F)(F)F)ccc(C(=O)C2=C(O)CCCC2=O)c1=O` [I-12], in experiment [1], the “herbicidal effect (index), Green Foxtail” value is 5 (90% or more of herbicidal effect and crop phytotoxicity). Also, in experiment [2], the “herbicidal effect (index), Barnyardgrass” value was 5 (90% or more of herbicidal effect and crop phytotoxicity). Besides, the “herbicidal effect (index), Slender Amaranth” value in experiment [3] is 5 (90% or more of herbicidal effect and crop phytotoxicity). Also, in experiment [4], the “herbicidal effect (index), Velvetleaf” value is 5 (90% or more of herbicidal effect and crop phytotoxicity). Further, in experiment [5], the “herbicidal effect, Echinochloa oryzicola Vasing” value is 5 (90% or more of herbicidal effect and crop phytotoxicity). Moreover, in experiment [6], the “herbicidal effect, Scirpus juncoides Roxb.” value was 5 (90% or more of herbicidal effect and crop phytotoxicity). Besides, the “herbicidal effect, Monochoria vaginalis” value in experiment [7] is 5 (90% or more of herbicidal effect and crop phytotoxicity).

As for `CC(C)=CCCn1c(C(F)(F)F)ccc(C(=O)C2=C(O)CCCC2=O)c1=O` [I-13], the “herbicidal effect (index), Green Foxtail” value in experiment [1] was 5 (90% or more of herbicidal effect and crop phytotoxicity). Besides, the “herbicidal effect (index), Barnyardgrass” value in experiment [2] was 5 (90% or more of herbicidal effect and crop phytotoxicity). The “herbicidal effect (index), Slender Amaranth” value in experiment [3] is 5 (90% or more of herbicidal effect and crop phytotoxicity). Also, in experiment [4], the “herbicidal effect (index), Velvetleaf” value is 5 (90% or more of herbicidal effect and crop phytotoxicity). Besides, the “herbicidal effect, Echinochloa oryzicola Vasing” value in experiment [5] was 5 (90% or more of herbicidal effect and crop phytotoxicity). Moreover, the “herbicidal effect, Scirpus juncoides Roxb.” value in experiment [6] is 5 (90% or more of herbicidal effect and crop phytotoxicity). Also, the “herbicidal effect, Monochoria vaginalis” value in experiment [7] is 5 (90% or more of herbicidal effect and crop phytotoxicity).

`C#CCn1c(C(F)(F)F)ccc(C(=O)C2=C(O)CCCC2=O)c1=O` [I-14]: in experiment [1], the “herbicidal effect (index), Green Foxtail” value is 5 (90% or more of herbicidal effect and crop phytotoxicity). In addition, the “herbicidal effect (index), Barnyardgrass” value in experiment [2] is 5 (90% or more of herbicidal effect and crop phytotoxicity). In addition, the “herbicidal effect (index), Slender Amaranth” value in experiment [3] is 5 (90% or more of herbicidal effect and crop phytotoxicity). For the same molecule, the “herbicidal effect (index), Velvetleaf” value in experiment [4] was 5 (90% or more of herbicidal effect and crop phytotoxicity). The “herbicidal effect, Echinochloa oryzicola Vasing” value in experiment [5] was 5 (90% or more of herbicidal effect and crop phytotoxicity). The “herbicidal effect, Scirpus juncoides Roxb.” value in experiment [6] is 5 (90% or more of herbicidal effect and crop phytotoxicity). In experiment [7], the “herbicidal effect, Monochoria vaginalis” value is 5 (90% or more of herbicidal effect and crop phytotoxicity).

For the molecule `CCCS(=O)(=O)Cc1c(Br)cc(C(=O)C2=C(O)CCCC2=O)c(=O)n1-c1ccccc1` [I-237], in experiment [1], the “herbicidal effect, Green Foxtail” value is 4 (70 to less than 90% of herbicidal effect and crop phytotoxicity). In addition, in experiment [2], the “herbicidal effect, Barnyardgrass” value is 5 (90% or more of herbicidal effect and crop phytotoxicity). The “herbicidal effect, Slender Amaranth” value in experiment [3] is 5 (90% or more of herbicidal effect and crop phytotoxicity). The “herbicidal effect, Velvetleaf” value in experiment [4] is 5 (90% or more of herbicidal effect and crop phytotoxicity).

For the molecule `CCSCn1c(C(F)(F)F)ccc(C(=O)C2=C(O)C3CCC(C3)C2=O)c1=O` (stereo not shown) [III-26], the “herbicidal effect, Green Foxtail” value in experiment [1] was 5 (90% or more of herbicidal effect and crop phytotoxicity). In experiment [2], the “herbicidal effect, Barnyardgrass” value was 5 (90% or more of herbicidal effect and crop phytotoxicity). Besides, the “herbicidal effect, Slender Amaranth” value in experiment [3] was 5 (90% or more of herbicidal effect and crop phytotoxicity). Also, the “herbicidal effect, Velvetleaf” value in experiment [4] is 5 (90% or more of herbicidal effect and crop phytotoxicity).

With `CC[S+]([O-])Cn1c(C(F)(F)F)ccc(C(=O)C2=C(O)C3CCC(C3)C2=O)c1=O` (stereo not shown) [III-27], the “herbicidal effect, Green Foxtail” value in experiment [1] was 5 (90% or more of herbicidal effect and crop phytotoxicity). Besides, in experiment [2], the “herbicidal effect, Barnyardgrass” value is 5 (90% or more of herbicidal effect and crop phytotoxicity). For the same molecule, the “herbicidal effect, Slender Amaranth” value in experiment [3] is 5 (90% or more of herbicidal effect and crop phytotoxicity). Besides, the “herbicidal effect, Velvetleaf” value in experiment [4] is 5 (90% or more of herbicidal effect and crop phytotoxicity).

As for `Cc1ccc(S(=O)(=O)Oc2c(C(=O)c3ccc(C(F)(F)F)n(CC4CCCO4)c3=O)c(C)nn2C)cc1` (stereo not shown) [IV-240], in experiment [5], the “herbicidal effect, Echinochloa oryzicola Vasing” value is 5 (90% or more of herbicidal effect and crop phytotoxicity). Further, the “herbicidal effect, Scirpus juncoides Roxb.” value in experiment [6] is 5 (90% or more of herbicidal effect and crop phytotoxicity). Besides, the “herbicidal effect, Monochoria vaginalis” value in experiment [7] was 5 (90% or more of herbicidal effect and crop phytotoxicity).

As for `CCCS(=O)(=O)Oc1c(C(=O)c2ccc(Cl)n(C)c2=O)cnn1C` [IV-242], the “herbicidal effect, Echinochloa oryzicola Vasing” value in experiment [5] is 5 (90% or more of herbicidal effect and crop phytotoxicity). Also, the “herbicidal effect, Scirpus juncoides Roxb.” value in experiment [6] was 5 (90% or more of herbicidal effect and crop phytotoxicity). Moreover, in experiment [7], the “herbicidal effect, Monochoria vaginalis” value is 4 (70 to less than 90% of herbicidal effect and crop phytotoxicity).

As to `Cn1c(C(F)(F)F)ccc(C(=O)C(C#N)C(=O)C2CC2)c1=O` (stereo not shown) [V-9, 2-cyano-3-cyclopropyl-1-[1,2-dihydro-1-methyl-2-oxo-6-(trifluoromethyl)pyridin-3-yl]propane-1,3-dione], in experiment [5], the “herbicidal effect (index), Echinochloa oryzicola Vasing” value is 5 (90% or more of herbicidal effect and crop phytotoxicity). In addition, the “herbicidal effect (index), Scirpus juncoides Roxb.” value in experiment [6] is 5 (90% or more of herbicidal effect and crop phytotoxicity). In addition, in experiment [7], the “herbicidal effect (index), Monochoria vaginalis (Burm.f.) C.Presl” value (from here on “herbicidal effect (index) … (Burm.f.) C.Presl”) is 5 (90% or more of herbicidal effect and crop phytotoxicity).

Regarding `CCCn1c(C(F)(F)F)c(C)cc(C(=O)C(C#N)=C(O)C2CC2)c1=O` [V-24], the “herbicidal effect (index), Echinochloa oryzicola Vasing” value in experiment [5] was 5 (90% or more of herbicidal effect and crop phytotoxicity). The “herbicidal effect (index), Scirpus juncoides Roxb.” value in experiment [6] is 5 (90% or more of herbicidal effect and crop phytotoxicity). The “herbicidal effect (index) … (Burm.f.) C.Presl” value in experiment [7] is 5 (90% or more of herbicidal effect and crop phytotoxicity).

Take `N#CC(C(=O)c1ccc(C(F)(F)F)n(CC2CCCO2)c1=O)=C(O)C1CC1` (stereo not shown) [V-26]: the “herbicidal effect (index), Echinochloa oryzicola Vasing” value in experiment [5] is 5 (90% or more of herbicidal effect and crop phytotoxicity). The “herbicidal effect (index), Scirpus juncoides Roxb.” value in experiment [6] is 4 (70 to less than 90% of herbicidal effect and crop phytotoxicity). In addition, in experiment [7], the “herbicidal effect (index) … (Burm.f.) C.Presl” value is 5 (90% or more of herbicidal effect and crop phytotoxicity).
